Values belong to the molecule of their own block, whether it stands above or below them.
How the values were obtained:
[1] = system: KATP channels within the medial hypothalamus; assay: Intrahypothalamic (IH) infusion of diazoxide or insulin with pancreatic-insulin clamp in rats; format: in vivo, Sprague-Dawley rats; settings: for rate of glucose infusion required to prevent hypoglycemia: IH infusion during pancreatic clamp, vs vehicle; for blood glucose levels / glucose production (GP): IH infusion; for blood glucose levels: bilateral, medial hypothalamus, fifteen-fold lower dose than ICV; for glucose production (GP): basal circulating insulin
Text: Animal preparation for the in vivo experiments. Rats. Eighty-nine 10-week-old male Sprague-Dawley rats (Charles River Breeding Laboratories, Wilmington, Mass.) were studied. Rats were housed in individual cages and subjected to a standard light-dark cycle. Three weeks prior to the in vivo studies, chronic catheters were implanted in the third cerebral ventricle (Obici et al., 2003; Liu et al., 1998) or intrahypothalamically (Morton et al., 2003) (IH) by stereotaxic surgery. One week before the pancreatic-insulin clamp protocols, rats received additional catheters in the right internal jugular and left carotid artery (FIG. 5) (Obici et al., 2003; Liu et al., 1998). In vivo studies. For the studies in rats, the metabolic experiments were performed ˜3 weeks after stereotaxic surgery following complete recovery from the operation (FIG. 5). All solutions were diluted with artificial cerebral spinal fluid (aCSF). […] Pancreatic-insulin clamp studies were performed as previously described (Liu et al., 1998). Euglycemic-hyperinsulinemic clamps in conscious, unrestrained, catheterized […] were performed for 90 min as previously described (Obici et al., 2003; Liu et al., 1998).

[2] = system: hypothalamic KATP channels; assay: ICV infusion of insulin, KATP channel blocker (glibenclamide) or both with pancreatic-insulin clamp (1 mU/kg.min) in rats; format: in vivo, Sprague-Dawley rats; settings: for Glucose: plasma; for rate of glucose infusion / glucose requirements: near basal circulating insulin levels
Text: (§1) Animal preparation for the in vivo experiments. Rats. Eighty-nine 10-week-old male Sprague-Dawley rats (Charles River Breeding Laboratories, Wilmington, Mass.) were studied. Rats were housed in individual cages and subjected to a standard light-dark cycle. Three weeks prior to the in vivo studies, chronic catheters were implanted in the third cerebral ventricle (Obici et al., 2003; Liu et al., 1998) or intrahypothalamically (Morton et al., 2003) (IH) by stereotaxic surgery.
(§2) In vivo studies. For the studies in rats, the metabolic experiments were performed ˜3 weeks after stereotaxic surgery following complete recovery from the operation (FIG. 5). All solutions were diluted with artificial cerebral spinal fluid (aCSF). […] Euglycemic-hyperinsulinemic clamps in conscious, unrestrained, catheterized mice were performed for 90 min as previously described (Obici et al., 2003; Liu et al., 1998).
(§3) Hepatic alucose fluxes. Rate of hepatic glucose fluxes was determined as described. Barzilai et al., 1997).

[3] = biological target: T1, hypothalamic insulin receptors (Rattus norvegicus, UniProt P15127); assay: ICV insulin with pancreatic-insulin clamp in rats with hepatic vagotomy (HV), sham operation or vagal deafferentation; format: in vivo, Sprague-Dawley rats; settings: for Body wt.: ICV infusion; for 14C-PEP: liver
T1 construct: Paired groups of SHAM and HV rats received an ICV infusion of either insulin or vehicle; from tissue; host or cells: brain/hypothalamus of living Sprague-Dawley rats (sham, hepatic vagotomy or vagal deafferentation)
Text: as §1, §2
(§4) Selective hepatic branch vagotomy. One week before the clamp procedure a subgroup of rats underwent selective hepatic vagotomy (HV) or sham operation (SHAM). Anatomical nerve transactions was verified in each rat at sacrifice by microscopic observation of the absence of vagal nerve fibers in between the two silk sutures that had been placed along the trunk at the time of transection (la Fleur et al., 2003).
Selective vagal deafferentation. Nerve transection was performed as previously described, according to the methods of Norgren and Smith (Norgren & Smith, 1998).
as §3

[4] = system: hepatic glucose production; assay: Pancreatic-hyperinsulinemic clamp (systemic insulin 3 mU/kg.min) in SHAM and HV rats; format: in vivo, Sprague-Dawley rats; settings: systemic hyperinsulinemia ~3-fold over basal
Description: Panel A is a schematic representation of the pancreatic-hyperinsulinemic clamp procedure. At t=120 an infusion of labeled glucose was initiated and maintained for the remaining 4 hours of the study and a pancreatic hyperinsulinemic clamp was initiated at t=240 min and lasted for 2 hours.
(§5) In vivo studies. For the studies in rats, the metabolic experiments were performed ˜3 weeks after stereotaxic surgery following complete recovery from the operation (FIG. 5). All solutions were diluted with artificial cerebral spinal fluid (aCSF). […] Pancreatic-insulin clamp studies were performed as previously described (Liu et al., 1998). Euglycemic-hyperinsulinemic clamps in conscious, unrestrained, catheterized mice were performed for 90 min as previously described (Obici et al., 2003; Liu et al., 1998).
as §4

[5] = system: hypothalamic KATP channels; assay: Central insulin or diazoxide in rats on a high fat diet for three days (hepatic insulin resistance); format: in vivo; settings: basal plasma insulin (20 μU/ml)
Description: Additional-experiments were also performed in rats maintained on a high fat diet regimen for three days.

G6 Pase = assay: Hepatic expression of G6 Pase by real-time PCR after central infusions; format: in vivo, Sprague-Dawley rats
Text: (§6) Gene expression. Gluconeogenic enzymes. Quantitative analysis of gene expression was done using RT-PCR. Total RNA was isolated with Trizol (Invitrogen) and single-strand cDNA was synthesized with a kit provided by Invitrogen. Real-time PCR reactions and the primers for G6 Pase and PEPCK were done as described (Pocai et al., in press). The copy number of each transcript was derived from a standard curve of cloned target templates. Expression of each transcript was normalized to copy number for 18s ribosomal protein.

PEPCK = assay: Hepatic expression of PEPCK by real-time PCR after central infusions; format: in vivo, Sprague-Dawley rats
Text: as §6

central KATP channels = assay: ICV infusion of diazoxide with pancreatic-insulin clamp (1 mU/kg.min) in conscious rats; format: in vivo, Sprague-Dawley rats
Text: as §1, with “surgery. One week before the pancreatic-insulin clamp protocols, rats received additional catheters in the right internal jugular and left carotid artery (FIG. 5) (Obici et al., 2003; Liu et al., 1998).” for “surgery.”
as §5, §3

[6] = Basal, before the clamp, ICV infusion
[7] = ICV infusion, liver harvested at completion of infusions

T1 sequence (P15127 27-759 limits assumed): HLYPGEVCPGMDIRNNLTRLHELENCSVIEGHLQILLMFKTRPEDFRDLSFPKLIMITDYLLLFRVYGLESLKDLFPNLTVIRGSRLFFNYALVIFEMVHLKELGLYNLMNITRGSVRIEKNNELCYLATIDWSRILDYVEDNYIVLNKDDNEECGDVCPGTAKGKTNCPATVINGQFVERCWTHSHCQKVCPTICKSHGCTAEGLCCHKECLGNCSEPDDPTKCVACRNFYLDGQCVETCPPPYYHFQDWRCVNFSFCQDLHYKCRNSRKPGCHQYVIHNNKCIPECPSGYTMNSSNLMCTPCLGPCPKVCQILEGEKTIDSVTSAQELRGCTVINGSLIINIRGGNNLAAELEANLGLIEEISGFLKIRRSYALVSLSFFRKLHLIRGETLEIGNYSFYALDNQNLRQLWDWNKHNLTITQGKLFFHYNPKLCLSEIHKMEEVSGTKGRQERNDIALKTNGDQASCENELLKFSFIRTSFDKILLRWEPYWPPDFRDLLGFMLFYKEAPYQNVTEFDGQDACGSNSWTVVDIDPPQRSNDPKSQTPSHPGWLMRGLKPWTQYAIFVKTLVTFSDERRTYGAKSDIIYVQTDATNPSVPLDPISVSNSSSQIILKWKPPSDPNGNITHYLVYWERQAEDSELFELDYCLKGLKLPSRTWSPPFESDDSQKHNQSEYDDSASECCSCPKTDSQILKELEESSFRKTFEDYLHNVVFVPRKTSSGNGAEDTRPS
T1 sequence (P15127 764-1383 partner limits assumed): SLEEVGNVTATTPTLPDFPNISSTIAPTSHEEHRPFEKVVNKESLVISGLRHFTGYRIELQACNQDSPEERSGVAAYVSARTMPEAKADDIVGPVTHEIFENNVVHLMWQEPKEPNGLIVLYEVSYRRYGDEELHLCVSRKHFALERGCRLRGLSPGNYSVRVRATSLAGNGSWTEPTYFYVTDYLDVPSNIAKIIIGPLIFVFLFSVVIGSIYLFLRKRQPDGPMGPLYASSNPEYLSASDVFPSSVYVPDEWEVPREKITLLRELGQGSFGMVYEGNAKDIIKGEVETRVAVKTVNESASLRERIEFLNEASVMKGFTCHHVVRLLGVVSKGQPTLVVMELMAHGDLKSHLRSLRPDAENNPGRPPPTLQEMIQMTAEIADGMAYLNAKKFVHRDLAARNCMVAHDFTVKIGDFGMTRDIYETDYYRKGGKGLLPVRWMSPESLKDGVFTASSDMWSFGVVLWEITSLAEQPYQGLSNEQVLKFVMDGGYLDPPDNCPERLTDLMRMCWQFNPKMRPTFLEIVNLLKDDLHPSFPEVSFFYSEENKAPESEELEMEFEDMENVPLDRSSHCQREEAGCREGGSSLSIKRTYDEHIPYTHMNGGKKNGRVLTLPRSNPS

Body wt. ([3]; HV, Basal): 295 ± 4 g
FFA ([3]; HV, Basal, plasma): 0.5 ± 0.2 mM
Glucose ([3]; HV, Basal, plasma): 7.9 ± 0.5 mM
FFA ([3]; HV, Clamp steady state, plasma): 0.5 ± 0.3 mM
Glucose ([3]; HV, Clamp steady state, plasma): 8.0 ± 0.6 mM
Insulin ([3]; HV, Clamp steady state, plasma): 0.9 ± 0.3 ng/mL
hepatic glucose fluxes ([3]; HV, ICV): failed to affect hepatic glucose fluxes
decrease in glucose production (GP) ([3]; HV, ICV, basal and equal insulin levels): not in HV rats
3H-Glucose Plasma SA ([3]; HV, Table 8): 52.4 ± 3.5 dpm/nmol
% Indirect ([3]; HV, indirect pathway (gluconeogenesis), Table 8): 34.4 ± 9.7%
14C-PEP ([3]; HV, Table 8): 5.5 ± 1.4 dpm/nmol
rate of glucose uptake ([3]; ICV, either SHAM or HV rats): not significantly affected
gluconeogenesis ([3]; SHAM, ICV): marked inhibition of gluconeogenesis
3H-Glucose Plasma SA ([3]; SHAM, Table 8): 43.1 ± 1.9 dpm/nmol
3H-UDP-glucose Liver SA ([3]; SHAM, Table 8): 5.5 ± 0.5 dpm/nmol
Direct (%) ([3]; SHAM, direct pathway, Table 8): 12.1 ± 0.71%
14C-PEP ([3]; SHAM, Table 8): 10.9 ± 0.6 dpm/nmol
Body wt. ([3]; Sham, Basal): 310 ± 5 g
FFA ([3]; Sham, Basal, plasma): 0.5 ± 0.3 mM
Glucose ([3]; Sham, Basal, plasma): 7.9 ± 0.3 mM
FFA ([3]; Sham, Clamp steady state, plasma): 0.4 ± 0.1 mM
ability to lower blood glucose levels and to suppress GP ([3]; rats with selective vagal deafferentation, ICV): did not alter
Molecule: insulin
rate of glucose infusion required to prevent hypoglycemia [1]: significant increases
blood glucose levels [1]: reproduced the potent effects of ICV insulin or diazoxide
glucose production (GP) [1]: reproduced the potent effects of ICV insulin or diazoxide
Glucose [2, 6]: 7.8 ± 0.3 mM
flux through G6 Pase ([2]; ICV): markedly decreased the flux through G6 Pase
gluconeogenesis ([2]; ICV): marked inhibition of gluconeogenesis
rate of glycogenolysis ([2]; ICV): not significantly decreased
blood glucose levels ([2]; ICV (third cerebral ventricle)): lowers blood glucose levels
decrease in glucose production (GP) ([2]; ICV, basal and equal insulin levels): 52±8%
rate of glucose infusion / glucose requirements ([2]; ICV): glucose infusion was required to prevent hypoglycemia
flux through G6 Pase ([3]; SHAM, ICV): markedly decreased the flux through G6 Pase
glucose infusion required to prevent hypoglycemia ([3]; SHAM, ICV, ~basal circulating insulin): glucose infusion was required to prevent hypoglycemia
suppression of GP ([4]; HV): 38±11%
suppression of GP ([4]; SHAM): 80±8%
inhibition of glucose production ([5]; central administration): failed to significantly inhibit glucose production
liver G6 Pase mRNA levels (G6 Pase; [7]): marked KATP channels dependent decreases
liver G6 Pase mRNA levels (G6 Pase; SHAM, ICV): marked decrease
liver PEPCK mRNA levels (PEPCK; [7]): marked KATP channels dependent decreases
liver PEPCK mRNA levels (PEPCK; SHAM, ICV): marked decrease

Molecule: COc1ccc(Cl)cc1C(=O)NCCc1ccc(S(=O)(=O)NC(=O)NC2CCCCC2)cc1 [glibenclamide, 5-Chloro-N-[2-[4-(3-cyclohexylureidosulfonyl)phenyl]ethyl]-2-methoxybenzamide, reference compound]
Glucose [2, 6]: 8.2 ± 0.5 mM
Glucose ([2]; Clamp steady state, ICV infusion): 8.2 ± 0.9 mM
rate of glucose infusion / glucose requirements ([2]; ICV): did not modify the rate of glucose infusion
glucose production (GP) ([2]; ICV, pancreatic clamp): did not per se affect GP
% Indirect ([2]; indirect pathway (gluconeogenesis), ICV infusion, Table 7): 32.4 ± 3.0%

Molecule: CC1=NS(=O)(=O)c2cc(Cl)ccc2N1 [diazoxide]
Glucose (central KATP channels; Basal, before the clamp, plasma, ICV infusion): 7.9 ± 0.4 mM
gluconeogenesis (central KATP channels; ICV): marked inhibition of gluconeogenesis
glucose cycling (central KATP channels; ICV): significantly reduced glucose cycling
rate of glycogenolysis (central KATP channels; ICV): not significantly decreased
blood glucose levels (central KATP channels; ICV (third cerebral ventricle), conscious rats): lowered blood glucose levels
glucose infusion required to prevent hypoglycemia (central KATP channels; ICV, basal circulating insulin levels): glucose infusion was required to prevent hypoglycemia
decrease in glucose production (GP) (central KATP channels; ICV, basal insulin levels (~20 μU/ml)): 45±4%
flux through G6 Pase (central KATP channels; ICV, in vivo): decreased the flux through G6 Pase
rate of glucose uptake (central KATP channels; ICV, pancreatic-insulin clamp): not significantly affected
% Indirect (central KATP channels; indirect pathway (gluconeogenesis), ICV infusion, Table 6): 9.7 ± 4.1 %
rate of glucose infusion required to prevent hypoglycemia [1]: significant increases
blood glucose levels [1]: lowered blood glucose levels
glucose production (GP) [1]: marked suppression of GP
inhibition of glucose production ([5]; ICV or intrahypothalamic infusion): ~45%
liver G6 Pase mRNA levels (G6 Pase; [7]): markedly decreased
liver PEPCK mRNA levels (PEPCK; [7]): markedly decreased

Source: patent publication US20070026079A1, “Intranasal administration of modulators of hypothalamic ATP-sensitive potassium channels” (priority 2005, published 2007)
